Measurements as given in patent EP0049801B1, “Sucrose-mutase, immobilized sucrose-mutase and use of this immobilized sucrose-mutase for the production of isomaltulose(6-O-alpha-D-glucopyranosido-D fructose)” (BAYER AG, priority 1980, dated 1982).

Test system: Saccharose-Mutase
Assay: Influence of ions on the enzymatic reaction
Format: biochemical, Protaminobacter rubrum
Experimental: Das freie Enzym wird bei Temperaturen > 40 °C rasch inaktiviert. Die Reaktion wird durch CU- + Zn-Ionen stark gehemmt.

Row | Einfluß auf die enzymatische Aktivität | SMILES
1 | keinen Einfluß | OB(O)O [Borat]
2 | stark gehemmt | [Cu+2] [CU]
